Data set [1] can be described thus: Example 2: rat pharmacokinetics of CBD and THC from cannabis extract (1:1 THC:CBD), IV bolus and oral gavage in MCT, TG-O3 or krill oil (PL-O3). It counts as in vivo. The following applies: intravenous administration of cannabis extract in lipid-free solution, at 5 minutes (data not shown). From the text:
The study design and methods of analyses of the pre-clinical study were the same as disclosed in Example 1.
Values are expressed as mean±SEM.

The nature of data set [2]: Example 1: rat pharmacokinetics of CBD and THC from cannabis extract (1:1 THC:CBD), IV bolus and oral gavage in MCT, TG-O3 or MAG-O3 carrier oil. As to conditions: intravenous administration of cannabis extract in lipid-free solution, at 5 minutes (data not shown).

Regarding `C=C(C)[C@@H]1CCC(C)=C[C@H]1c1c(O)cc(CCCCC)cc1O` [CBD, cannabidiol], the peak plasma concentration in data set [1] and in data set [2] was 1193 ± 290 ng/mL each time.

As for `CCCCCc1cc(O)c2c(c1)OC(C)(C)[C@@H]1CCC(C)=C[C@@H]21` [THC, Δ^9tetrahydrocannabinol], the peak plasma concentration in data set [1] and in data set [2] was 864 ± 194 ng/mL each time.
